Where two headings read alike, the source gives them in different places.
Assays:
[1] = Human liver microsome stability assay (Biological Example 8b); conditions: liver microsomes, pH 7.4
Method: The reaction was started with addition of excess NADPH (5 mg/mL, 15 μL in 0.1 M potassium phosphate buffer, 1.0 mM EDTA, pH 7.4), the total volume is 45 μL (compound final concentration was 1 μM). […] 50 μL of the supernatant was transferred from each well into a 96-well sample plate containing 50 μL of ultra-pure water (Millipore) for LC-MS/MS analysis.

[2] = molecular target: T1, CYP17 (human testicular microsome) (Homo sapiens, UniProt P05093); experiment: CYP17 enzymatic assay (% inhibition at 10 nM), version 1 (Biological Example 5); type: biochemical; conditions: 10 nM compound, DHEA by ELISA, read-out: Biological Example No. 5: CYP17 percent inhibition at 10 nM (version 1)
T1 construct: using microsomal fraction from human testis (Celsis Cat #S00110) as the enzyme source; tissue Celsis S00110; host or cells: human testis microsomal fraction
T1 sequence (P05093 1-508): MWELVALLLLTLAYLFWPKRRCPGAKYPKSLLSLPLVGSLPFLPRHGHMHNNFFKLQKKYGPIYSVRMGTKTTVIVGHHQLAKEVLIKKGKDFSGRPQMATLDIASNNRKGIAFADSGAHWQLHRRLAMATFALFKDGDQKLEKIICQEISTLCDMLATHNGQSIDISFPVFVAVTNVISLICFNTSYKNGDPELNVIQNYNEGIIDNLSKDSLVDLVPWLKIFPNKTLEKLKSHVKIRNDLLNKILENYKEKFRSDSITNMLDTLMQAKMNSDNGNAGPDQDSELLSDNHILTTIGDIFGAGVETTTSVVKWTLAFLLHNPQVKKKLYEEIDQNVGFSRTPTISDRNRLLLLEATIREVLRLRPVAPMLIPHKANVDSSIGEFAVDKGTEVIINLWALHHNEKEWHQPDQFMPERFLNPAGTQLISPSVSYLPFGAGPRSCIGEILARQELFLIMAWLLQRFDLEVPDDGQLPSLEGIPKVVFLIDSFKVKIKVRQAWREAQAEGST

[3] = molecular target: T1, CYP17 (human testicular microsome); experiment: CYP17 enzymatic assay (IC50) (Biological Example 4); type: biochemical
[4] = molecular target: T1, CYP17 (human testicular microsome); experiment: CYP17 enzymatic assay (% inhibition at 1 nM) (Biological Example 12); type: biochemical; conditions: compound at 1 nM
Method: The assays were performed in 96-well plates. Typical assays were carried out in total 100 μL volume that included test compounds at 1 nM concentration, 1× reaction buffer, 0.5 mM NADPH, 1 μM 17α-hydroxypregnenolone, and 2.5 μL of human testicular microsome (Celsis. Cat #S00110). Reaction without test compound served as a positive control. Reactions were allowed to incubate at 37° C. for 90 min with gentle shaking. The reaction was stopped by directly applying the enzymatic reaction mixture to ELISA plate for evaluation of DHEA concentration according to manufacturer's protocol (IBL America). A standard curve (OD450 vs. DHEA concentration) was generated using purified DHEA. […] Percent inhibition (inhibition %) of the compound was calculated using normalized DHEA concentration based on following formula: 100−([DHEA] of compound/[DHEA] of positive control*100).

[5] = molecular target: T2, Cyp21 enzyme (Human HEK 293-Cyp21 stable transfected cells) (Homo sapiens, UniProt P08686); experiment: CYP21-HEK293 enzymatic assay (IC50) (Biological Example 11); type: cell-based; conditions: HEK 293-Cyp21 stable transfected cells; read-out: CYP21-HEK293 enzymatic assay IC50 (Biological Example No. 11)
T2 construct: expressed in transfected cells
T2 sequence (P08686 1-495): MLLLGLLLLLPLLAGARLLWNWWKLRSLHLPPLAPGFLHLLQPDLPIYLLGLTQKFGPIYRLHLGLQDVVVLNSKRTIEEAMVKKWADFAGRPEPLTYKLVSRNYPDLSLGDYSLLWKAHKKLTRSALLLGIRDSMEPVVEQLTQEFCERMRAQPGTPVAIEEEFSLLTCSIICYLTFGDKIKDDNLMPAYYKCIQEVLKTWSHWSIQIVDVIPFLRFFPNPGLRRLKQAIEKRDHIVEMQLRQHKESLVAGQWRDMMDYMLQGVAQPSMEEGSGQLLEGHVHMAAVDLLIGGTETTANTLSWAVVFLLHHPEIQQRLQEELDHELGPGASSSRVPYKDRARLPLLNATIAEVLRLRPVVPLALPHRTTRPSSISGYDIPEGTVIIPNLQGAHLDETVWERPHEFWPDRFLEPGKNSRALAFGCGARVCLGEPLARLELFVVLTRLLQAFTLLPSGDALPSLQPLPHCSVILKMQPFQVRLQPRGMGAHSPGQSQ

[6] = human testicular microsome, DHEA by ELISA, read-out: Biological Example No. 4: CYP17 enzymatic assay IC50
[7] = read-out: CYP17 enzymatic assay % inhibition at 1 nM (Biological Example No. 12)
[8] = human testicular microsome, read-out: CYP17 enzymatic assay IC50 (Biological Example No. 4)
[9] = read-out: Biological Example No. 12: CYP17 enzymatic assay % inhibition at 1 nM
[10] = human testicular microsome, read-out: Biological Example No. 4: CYP17 enzymatic assay IC50

| Structure (SMILES) | half-life at 1 μM [1] | inhibition at 0.001 µM [4, 9] | IC50 [3, 10] | further results |
| --- | --- | --- | --- | --- |
| C[C@]12CCCCC1C(O)C[C@@H]1[C@@H]2CC[C@]2(C)C(n3ccnc3)=CC[C@@H]12 (stereo partly drawn) [Compound 85, (10R,13S)-17-(1H-imidazol-1-yl)-10,13-dimethyl-2,3,4,5,6,7,8,9,10,11,12,13,14,15-tetradecahydro-1H-cyclopenta[a]phenanthren-6-ol] | 1 to 50 min |  |  | inhibition at 0.01 µM [2]: 50 to 80%; IC50 [3, 6]: < 11 nM |
| C[C@]12CCC(=O)CCC1=CCC1[C@@H]2CC[C@]2(C)C(n3ccnc3)=CC[C@@H]12 (stereo partly drawn) [Compound 106, (3aS,10aR,10bS,12aS)-1-(1H-imidazol-1-yl)-10a,12a-dimethyl-3,3a,3b,4,6,7,10,10a,10b,11,12,12a-dodecahydrocyclohepta[a]cyclopenta[f]naphthalen-8(9H)-one] | 1 to 50 min |  |  | inhibition at 0.01 µM [2]: > 80%; IC50 [3, 6]: < 11 nM |
| C[C@]12CC[C@H]3[C@@H](CC[C@H]4C[C@@H](O)CC[C@@]43C)C1=CC=C2c1cccnc1 [Compound 163, (5S,8R,9S,10S,13S)-10,13-dimethyl-17-(pyridin-3-yl)-2,3,4,5,6,7,8,9,10,11,12,13-dodecahydro-1H-cyclopenta[a]phenanthren-3-ol] | > 50 min |  |  | inhibition at 0.01 µM [2]: > 80%; IC50 [3, 6]: < 11 nM |
| C[C@]12CCC(NC(=O)C3CCC3)CC1=CCC1C2CC[C@]2(C)C(n3ccnc3)=CCC12 (stereo partly drawn) [Compound 240, N-((10R,13S)-17-(1H-imidazol-1-yl)-10,13-dimethyl-2,3,4,7,8,9,10,11,12,13,14,15-dodecahydro-1H-cyclopenta[a]phenanthren-3-yl)cyclobutanecarboxamide] | 1 to 50 min |  |  | inhibition at 0.001 µM [4, 7]: > 50%; IC50 [3, 8]: < 11 nM |
| C[C@]1(O)CC[C@@]2(C)C(CCC3C2CC[C@]2(C)C(c4cccnc4)=CCC32)C1 (stereo partly drawn) [Compound 254, (3S,10S,13S)-3,10,13-trimethyl-17-(pyridin-3-yl)-2,3,4,5,6,7,8,9,10,11,12,13,14,15-tetradecahydro-1H-cyclopenta[a]phenanthren-3-ol] | 1 to 50 min |  |  | inhibition at 0.001 µM [4, 7]: > 50%; IC50 [3]: < 11 nM |
| C[C@]1(O)CC[C@@]2(C)C(CCC3C4=CC=C(c5cccnc5)[C@@]4(C)CCC32)C1 (stereo partly drawn) [Compound 259, (3S,10S,13S)-3,10,13-trimethyl-17-(pyridin-3-yl)-2,3,4,5,6,7,8,9,10,11,12,13-dodecahydro-1H-cyclopenta[a]phenanthren-3-ol] | 1 to 50 min |  |  | inhibition at 0.001 µM [4, 7]: 10 to 50%; IC50 [3]: < 11 nM |
| C[C@]12CC[C@H](O)CC1=CCC1C2CC[C@]2(C)C(c3cncc(F)c3)=CCC12 (stereo partly drawn) [Compound 274, (3S,10R,13S)-17-(5-fluoropyridin-3-yl)-10,13-dimethyl-2,3,4,7,8,9,10,11,12,13,14,15-dodecahydro-1H-cyclopenta[a]phenanthren-3-ol] | > 50 min | > 50% | < 11 nM |  |
| C[C@]12CC[C@H](O)CC1=CCC1C2CC[C@]2(C)C(c3ccc(F)nc3)=CCC12 (stereo partly drawn) [Compound 276, (3S,10R,13S)-17-(6-fluoropyridin-3-yl)-10,13-dimethyl-2,3,4,7,8,9,10,11,12,13,14,15-dodecahydro-1H-cyclopenta[a]phenanthren-3-ol] | 1 to 50 min | 10 to 50% | > 25 nM |  |
| C[C@]12CC[C@H](O)CC1=CCC1C2CC[C@]2(C)C(c3cncc(Cl)c3)=CCC12 (stereo partly drawn) [Compound 280, (3S,10R,13S)-17-(5-chloropyridin-3-yl)-10,13-dimethyl-2,3,4,7,8,9,10,11,12,13,14,15-dodecahydro-1H-cyclopenta[a]phenanthren-3-ol] | 1 to 50 min | > 50% | < 11 nM |  |
| C[C@]12CC[C@H](O)CC1=CCC1C2CC[C@]2(C)C(c3cncc(N)c3)=CCC12 (stereo partly drawn) [Compound 283, (3S,10R,13S)-17-(5-aminopyridin-3-yl)-10,13-dimethyl-2,3,4,7,8,9,10,11,12,13,14,15-dodecahydro-1H-cyclopenta[a]phenanthren-3-ol] | > 50 min | > 50% | < 11 nM |  |
| CC1(C)C2=CCC3C4=CC=C(c5cccnc5)[C@@]4(C)CCC3[C@@]2(C)CCC1O (stereo partly drawn) [Compound 298, (10R,13S)-4,4,10,13-tetramethyl-17-(pyridin-3-yl)-2,3,4,7,8,9,10,11,12,13-decahydro-1H-cyclopenta[a]phenanthren-3-ol] | 1 to 50 min |  |  | inhibition at 0.001 µM [4, 7]: 10 to 50%; IC50 [3, 8]: > 25 nM |
| C[C@]12CCC3C(CC(F)[C@]4(O)C[C@@H](O)CC[C@]34C)C1CC=C2c1cccnc1 (stereo partly drawn) [Compound 322, (3S,5S,10R,13S)-6-fluoro-10,13-dimethyl-17-(pyridin-3-yl)-2,3,4,5,6,7,8,9,10,11,12,13,14,15-tetradecahydro-1H-cyclopenta[a]phenanthrene-3,5-diol] | 1 to 50 min | > 50% | < 11 nM |  |
| C[C@]12CCC3C(CC(F)[C@@]4(O)C[C@@H](O)CC[C@]34C)C1CC=C2c1cccnc1 (stereo partly drawn) [Compound 323, (3S,5R,10R,13S)-6-fluoro-10,13-dimethyl-17-(pyridin-3-yl)-2,3,4,5,6,7,8,9,10,11,12,13,14,15-tetradecahydro-1H-cyclopenta[a]phenanthrene-3,5-diol] | 1 to 50 min | > 50% | < 11 nM |  |
| C=C1C[C@H]2C3=CC=C(c4cccnc4)[C@@]3(C)CC[C@@H]2[C@@]2(C)CCC(=O)C=C12 [Compound 348, (10R,13S)-10,13-dimethyl-6-methylene-17-(pyridin-3-yl)-6,7,8,9,10,11,12,13-octahydro-1H-cyclopenta[a]phenanthren-3(2H)-one] |  |  |  | IC50 [5]: 10 to 100 nM |
| C[C@]12CC[C@H]3[C@@H](CC4(CC4)C4=CC(=O)CC[C@@]43C)C1=CC=C2c1cccnc1 [Compound 351, (10R,13S)-10,13-dimethyl-17-(pyridin-3-yl)-1,7,8,9,10,11,12,13-octahydrospiro[cyclopenta[a]phenanthrene-6,1′-cyclopropan]-3(2H)-one] |  |  |  | IC50 [5]: < 10 nM |
| C=C1C[C@H]2C3=CC=C(c4cncc(F)c4)[C@@]3(C)CC[C@@H]2[C@@]2(C)CCC(=O)C=C12 [Compound 353, (10R,13S)-17-(5-fluoropyridin-3-yl)-10,13-dimethyl-6-methylene-6,7,8,9,10,11,12,13-octahydro-1H-cyclopenta[a]phenanthren-3(2H)-one] |  |  |  | IC50 [5]: 10 to 100 nM |
| CC(=O)N[C@@H]1CC[C@@]2(C)C(=CC[C@@H]3[C@@H]2CC[C@]2(C)C(c4cncc(F)c4)=CC[C@@H]32)C1 [Compound 427, N-((3R,10R,13S)-17-(5-fluoropyridin-3-yl)-10,13-dimethyl-2,3,4,7,8,9,10,11,12,13,14,15-dodecahydro-1H-cyclopenta[a]phenanthren-3-yl)acetamide] | 1 to 50 min | > 50% | < 11 nM |  |
| C#C[C@]1(O)CC[C@@]2(C)C(CCC3C2CC[C@]2(C)C(c4cccnc4)=CCC32)C1 (stereo partly drawn) [Compound 474, (3S,10S,13S)-3-ethynyl-10,13-dimethyl-17-(pyridin-3-yl)-2,3,4,5,6,7,8,9,10,11,12,13,14,15-tetradecahydro-1H-cyclopenta[a]phenanthren-3-ol] | > 50 min |  |  | inhibition at 0.001 µM [4, 7]: 10 to 50%; IC50 [3, 8]: > 25 nM |
| CC(=O)N[C@@H]1CC[C@@]2(C)C(=CCC3C2CC[C@]2(C)C(c4cncc(C(F)F)c4)=CCC32)C1 (stereo partly drawn) [Compound 480, N-((3R,10R,13S)-17-(5-(difluoromethyl)pyridin-3-yl)-10,13-dimethyl-2,3,4,7,8,9,10,11,12,13,14,15-dodecahydro-1H-cyclopenta[a]phenanthren-3-yl)acetamide] | 1 to 50 min | > 50% | < 11 nM |  |
